Series [1] in a line: inhibitors of intracellular T. cruzi replication, confirmation, NIH3T3 host cells, beta-gal luminescence (AID 2044).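 Note: intracellular parasites grown in NIH/3T3 mouse fibroblasts as host cells; luminescent beta-galactosidase reporter signal from transgenic T. cruzi replicating inside host cells; inhibitors lower the luminescence signal.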 The class given is functional, cell-based.
Series [2] can be described thus: cytotoxicity toward NIH3T3 fibroblasts, dose response, counter-screen, cell-based, ATP luminescence, mouse fibroblasts (AID 2010).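 Note: cells exposed to compound for about 90 hours before reading.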 The class given is functional. A general note: Counterscreens check selectivity or assay interference.
Series [3] concerns the target T1, Heat shock factor protein 1 (Mus musculus, UniProt P38532).
T1 sequence (P38532 whole entry): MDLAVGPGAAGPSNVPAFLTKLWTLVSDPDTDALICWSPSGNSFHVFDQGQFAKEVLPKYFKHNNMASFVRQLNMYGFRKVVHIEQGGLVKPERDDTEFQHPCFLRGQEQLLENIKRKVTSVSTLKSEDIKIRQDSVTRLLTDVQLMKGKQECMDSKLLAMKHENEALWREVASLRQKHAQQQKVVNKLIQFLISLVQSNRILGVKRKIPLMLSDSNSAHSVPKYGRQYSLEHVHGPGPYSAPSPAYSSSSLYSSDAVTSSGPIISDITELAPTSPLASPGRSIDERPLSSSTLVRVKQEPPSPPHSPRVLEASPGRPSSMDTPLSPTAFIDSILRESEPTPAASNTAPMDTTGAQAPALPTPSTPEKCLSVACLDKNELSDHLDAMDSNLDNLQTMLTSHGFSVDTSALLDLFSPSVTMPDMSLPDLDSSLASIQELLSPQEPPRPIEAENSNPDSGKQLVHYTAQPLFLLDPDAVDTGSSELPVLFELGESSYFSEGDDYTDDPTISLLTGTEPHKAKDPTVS
Nature of the series: inhibition of MG132-induced HSE-luciferase signal, confirmation, cell-based, NIH3T3, luminescence, dose retest (AID 2382).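 Note: NIH3T3 fibroblasts with HSF1-driven luciferase reporter stressed by proteasome inhibitor MG132; luminescence from HSF1-driven luciferase expression after 8 hours of MG132 stress.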 The series is classed as functional.

Series [4] addresses Cytochrome P450 2C19 (Homo sapiens, UniProt P33261). Nature of the series: Cytochrome panel assay with activity outcomes. Panel member name: p450-cyp2c19 Compounds with AC50 equal or less than 10 uM are considered active. The series is classed as functional.

Active and inactive are the calls of the source.

Our source for the EC50 and AC50 values is ChEMBL document CHEMBL1201862, “PubChem BioAssay data set” (2004).

Cytochrome P450 2C19, sequence (P33261 whole entry): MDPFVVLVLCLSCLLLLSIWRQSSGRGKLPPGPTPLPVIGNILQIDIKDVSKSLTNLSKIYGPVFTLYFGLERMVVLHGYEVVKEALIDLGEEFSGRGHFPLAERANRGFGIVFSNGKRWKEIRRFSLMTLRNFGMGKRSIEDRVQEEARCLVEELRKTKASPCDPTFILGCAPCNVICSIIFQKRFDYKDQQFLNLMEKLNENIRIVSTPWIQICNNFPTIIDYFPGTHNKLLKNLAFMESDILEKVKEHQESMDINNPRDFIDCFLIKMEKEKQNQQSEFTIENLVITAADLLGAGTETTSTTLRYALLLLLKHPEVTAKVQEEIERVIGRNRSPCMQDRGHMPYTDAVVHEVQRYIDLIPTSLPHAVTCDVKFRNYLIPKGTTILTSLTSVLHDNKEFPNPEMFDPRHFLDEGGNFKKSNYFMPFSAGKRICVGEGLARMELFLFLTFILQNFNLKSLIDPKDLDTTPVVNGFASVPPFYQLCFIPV

As for `O=C(Nc1ccncc1)c1ccc(-c2ccccc2)cc1`, the EC50 in series [1] is 1.44 µM (active); in series [2] it was > 60 µM (inconclusive).

Turning to `COc1ccc(Cc2nc3c4c(ncn3n2)Oc2ccc3ccccc3c2C4c2ccc(OC)c(OC)c2)cc1` (stereo unspecified), the EC50 in series [1] is 1.52 µM (active); in series [2] it was > 60 µM (inconclusive).

Consider `CCCS(=O)(=O)N1CCc2cc(OC)c(OC)cc2C1`, for which the EC50 in series [3] is > 195 µM (not active).

Consider `CC1CCCCN1C(=O)C(=O)c1cn(CC(=O)N2CCCCCC2)c2ccccc12` (stereo unspecified), for which the values for the 50% effective concentration (EC50) in series [1] and in series [2] were 1.49 µM (active) and > 60 µM (not active), respectively.

Consider `Cc1cc(C(=O)Nc2c(C)n(C)n(-c3ccccc3)c2=O)c2ccccc2n1`, for which the AC50 result in series [4] is given as “inconclusive”.

Turning to `O=C(N/N=C/c1ccc(Br)o1)c1ccc2c(c1)OCCO2`, the EC50 in series [3] was > 195 µM (not active).

Consider `Cc1cc(N2CCN(C)CC2)nc2ccc(NC(=O)c3ccccc3F)cc12`, for which the EC50 was 1.02 µM (active) in series [1] and > 60 µM (not active) in series [2].

In the case of `CC(=O)C1=C(O)C(=O)N(c2ccc(C)cc2)C1c1ccccn1` (stereo unspecified), the EC50 in series [3] is given as > 195 µM (not active).

On to `Cc1cccc2cc(CN(Cc3ccc(F)cc3)Cc3nnnn3C3CCCC3)c(O)nc12`, for which the EC50 in series [1] was 2.38 µM (active); in series [2] it was 28.9 µM (active).

Regarding `O=C(Nc1ccc(-n2ccnc2P(=O)(O)c2ccccc2)cc1)c1ccccc1Cl`, the EC50 in series [3] is recorded as > 195 µM (not active).

For `CCCCCCCC(=O)Nc1cc(C(=O)NCCC)ccc1N1CCC2(CC1)CC(c1ccccc1)=NO2`, the EC50 in series [1] was 1.76 µM (active); in series [2] it was > 60 µM (not active).

As to `O=[N+]([O-])c1ccc(S(=O)(=O)N2CCN(Cc3c[nH]c4ccccc34)CC2)cc1`, the EC50 is 1.31 µM (active) in series [1] and > 60 µM (not active) in series [2].

For the compound `Cc1nc2cnc(Oc3cccc(Cl)c3)nc2n(C2CC2)c1=O`, the AC50 in series [4] (read-out: AC50) was 31.6 µM (inconclusive).

In the case of `COc1ccc(C(=O)C2CCCN(Cc3ccc(NC(C)=O)cc3)C2)cc1OC` (stereo unspecified), the EC50 in series [3] was 60.1 µM (active).

For `CCOc1ccc(CNCCCSc2ncccn2)cc1OC`, the EC50 in series [3] is reported as > 195 µM (not active).

Regarding `CCOC(=O)c1cc(-c2ccccc2)sc1NC(=O)CN1C(=O)NC(CC)(c2ccc(F)cc2)C1=O` (stereo unspecified), the values for the EC50 in series [1] and in series [2] were 2.21 µM (active) and > 60 µM (not active), respectively.

Turning to `CC(C)CCc1c(O)nc(SCC(=O)N2CCCCCC2)nc1O`, in series [3], the EC50 is > 195 µM (not active).

Regarding `O=C(Nc1ccc(F)cc1)c1ccc(O)nn1`, the EC50 in series [3] is given as > 195 µM (not active).

As for `CCn1c(=O)n(CC)c2cc(N3CCCC3)c(NC(=O)c3ccc(OC)c(Br)c3)cc21`, the EC50 in series [3] is > 195 µM (not active).

Take `c1ccc(Cc2nc3ccccc3o2)cc1`: the EC50 in series [3] is recorded as > 195 µM (not active).

Turning to `COc1ccccc1-n1ccnc(SCC(=O)NCc2ccccc2)c1=O`, in series [3], the EC50 was > 195 µM (not active).

As for `CCOC(=O)c1c(C)[nH]c(C(=O)COC(=O)C2=NNC(=O)CC2)c1C`, the concentration for a half-maximal effect (EC50) in series [3] is > 195 µM (not active).

As for `Cc1nnc(N2C(=O)c3cccc4cccc(c34)C2=O)s1`, in series [3], the EC50 is > 195 µM (not active).

`COC(=O)c1c[nH]nc1N=C(S)Nc1ccc(Cl)c(Cl)c1`: the 50% effective concentration (EC50) in series [3] was 0.249 µM (active).

As for `CC1=C(C(=O)Nc2ccccc2)C(c2cc(CN3CCOCC3)cs2)C2=C(O)CCCC2=N1` (stereo unspecified), the EC50 in series [3] is reported as > 195 µM (not active).

For `CCc1ccccc1NC(=O)CSc1nnc(-c2ccncc2)o1`, the half-maximal effective concentration (EC50) in series [3] is > 195 µM (not active).

With `COc1cc(OC)cc(C(=O)N2CCN(S(C)(=O)=O)CC2)c1`, the EC50 in series [3] was > 195 µM (not active).

As to `COc1ccc(CCN=C(S)NCc2ccc(Cl)c(Cl)c2)cc1OC`, the EC50 in series [1] is 2.05 µM (active); in series [2] it was > 60 µM (inconclusive).

For the compound `CCCCSc1nc2sc3c(c2c(=O)n1-c1ccccc1)CCN(C)C3`, the EC50 in series [1] is 0.143 µM (active); in series [2] it was > 60 µM (not active).

As to `Cc1ccc(C(=O)NC(=S)Nc2ccc(Oc3ccc(Cl)cc3)cc2)cc1`, the EC50 was 2.09 µM (active) in series [1] and > 60 µM (inconclusive) in series [2].

Regarding `CCCC1=Nc2cc(C(=O)NCCCN3CCN(C)CC3)ccc2Sc2ccccc21`, in series [3], the EC50 is > 195 µM (not active).

Turning to `CSc1nsc(SCC(=O)NCc2ccc(C)cc2)n1`, in series [3], the EC50 is reported as > 195 µM (not active).

`CCCC(C)NC(=O)C1c2ccccc2Oc2ccccc21` (stereo unspecified): the EC50 in series [3] is recorded as > 195 µM (not active).

Consider `Cc1cc(=O)[nH]c2c1c(=O)[nH]n2C1CC(C)N(C)CC1C` (stereo unspecified), for which the concentration for a half-maximal effect (EC50) in series [3] was > 195 µM (not active).

With `Cc1ccc(N/C(SCc2ccccc2C)=C(/C#N)C(=O)NCc2ccco2)cc1C`, the EC50 in series [1] was 1.3 µM (active); in series [2] it was > 60 µM (not active).

Regarding `CCCC1c2ccc(C)n2CCN1C(=O)Nc1ccc(F)cc1` (stereo unspecified), the EC50 in series [3] is reported as > 195 µM (not active).

`COc1ccc(Nc2nc(C)cc(C)c2C#N)cc1OC`: the EC50 in series [3] was > 195 µM (not active).

For the compound `CCN(Cc1ccc2c(c1)OCO2)C(=O)/C=C/c1cccc(Br)c1`, the EC50 in series [3] is given as > 195 µM (not active).

For `CC(C)CCNC(=O)CN=C(S)N(Cc1ccccc1)Cc1cccnc1`, the EC50 is 0.65 µM (active) in series [1] and > 60 µM (not active) in series [2].

Consider `O=[N+]([O-])c1ccc(/N=C/c2sc3ccccc3c2O)cc1`, for which the EC50 in series [3] is listed as > 195 µM (not active).

For the compound `FC(F)(F)c1cccc(-c2cc(C3CCNCC3)n[nH]2)c1`, the half-maximal effective concentration (EC50) was 3.5 µM (active) in series [1] and 8.6 µM (active) in series [2].

For the compound `CCOc1cc(C)c(Cl)cc1S(=O)(=O)n1ccnc1`, the EC50 is 1.83 µM (active) in series [1] and 21.4 µM (active) in series [2].

On to `COc1ccc(-c2cc(C(=O)N3CCN(c4cccc(C)c4C)CC3)c3ccccc3n2)cc1OC`, for which the results for the EC50 in series [1] and in series [2] were 2.93 µM (active) and > 60 µM (not active), respectively.

For the compound `O=C(CCN1CCN(c2ccccc2)CC1)c1ccc(Br)cc1`, the EC50 was 1.85 µM (active) in series [1] and > 60 µM (not active) in series [2].

As for `Cc1ccc2sc(N(CCCN(C)C)C(=O)c3ccc(S(=O)(=O)N(C)Cc4ccccc4)cc3)nc2c1C`, the concentration giving a half-maximal response (EC50) in series [1] is 0.451 µM (active); in series [2] it was 11.7 µM (active).

For the compound `CCC(Sc1nc2cc(OC)c(OC)cc2c(=O)n1CCc1ccc(S(N)(=O)=O)cc1)C(=O)NCCOC` (stereo unspecified), the EC50 in series [3] is given as > 195 µM (not active).

Turning to `CCC(=O)N1C(C(=O)N2CCCC2)CSC1c1ccc(OC)cc1` (stereo unspecified), in series [3], the concentration for a half-maximal effect (EC50) is 32.2 µM (active).

As to `Clc1ccc(SCCOCCN2CCOCC2)cc1`, the results for the concentration for a half-maximal effect (EC50) in series [1] and in series [2] were 0.803 µM (active) and > 60 µM (not active), respectively.

In the case of `CN(Cc1ccccc1)C(=O)CCS(=O)(=O)c1ccc2c(c1)n(C)c(=O)c(=O)n2C`, in series [3], the EC50 is listed as > 195 µM (not active).

On to `Nc1nonc1-c1noc(-c2ccccc2Br)n1`, for which the EC50 in series [3] was > 195 µM (not active).

With `CCOC(=O)Cc1cc(O)c2cc(C)ccc2n1`, the EC50 in series [3] was 86.1 µM (active).

Take `CC(NC(=O)c1ccc2c(c1)OCO2)c1ccccc1` (stereo unspecified): the EC50 in series [3] is on record as > 195 µM (not active).

For `CC1=C(C(=O)N2CCc3ccccc32)C2(CCC(C)CC2)OC1=O` (stereo unspecified), the figures for the EC50 in series [1] and in series [2] were 2.67 µM (active) and > 60 µM (not active), respectively.

With `CCCCSc1nc2ccc(Nc3nc(N4CCOCC4)nc(N4CCOCC4)n3)cc2s1`, the EC50 in series [1] was 1.45 µM (active); in series [2], > 60 µM (not active).

As to `Nc1ccc2oc(C3CCCCC3)nc2c1`, the EC50 in series [3] is > 195 µM (not active).

`CCCCOc1ccc(C2C(=O)N(C3CCCCC3)CC(=O)N2CC2CCCO2)cc1` (stereo unspecified): the EC50 in series [3] is > 195 µM (not active).

Take `Cn1c(C(C#N)C(=O)c2sc3ccccc3c2Cl)nc2ccccc21` (stereo unspecified): in series [3], the EC50 is > 195 µM (not active).

As to `Cc1ccc(C)c(N2CCN(CCN3CCCCC3)CC2)c1`, the EC50 in series [3] is listed as > 195 µM (not active).

For `CCOc1ccc2nc(O)c(CN(Cc3cccs3)Cc3nnnn3C(C)(C)CC)cc2c1`, the EC50 in series [1] was 2.56 µM (active); in series [2] it was > 30 µM (not active).

As for `Cc1occc1C(=O)N/N=C/c1ccc(-c2cccc([N+](=O)[O-])c2)o1`, the values for the EC50 in series [1] and in series [2] were 2.05 µM (active) and > 60 µM (not active), respectively.

Regarding `CCCC(=O)Nc1ccc(Cl)c(NC(=O)c2cccnc2)c1`, in series [3], the EC50 is reported as > 195 µM (not active).

Regarding `COc1ccc(N2CC(C(=O)Nc3nnc(C4CCCCC4)s3)CC2=O)cc1` (stereo unspecified), the EC50 in series [3] is reported as > 195 µM (not active).

On to `CCN1CCN(C(=O)C2CCN(C(=O)c3cc4sccc4n3CC)CC2)CC1`, for which the EC50 in series [3] was > 195 µM (not active).

Turning to `CC(=O)Nc1cccc(C(=O)/C=C/c2ccc(C)cc2)c1`, the EC50 in series [3] is given as > 195 µM (not active).

Consider `Cn1c(-c2nonc2N)nc2ccccc21`, for which the EC50 in series [3] is recorded as > 195 µM (not active).

In the case of `O=C(CCc1nc(O)c2ccccc2n1)N1CCN(C/C=C/c2ccccc2)CC1`, the concentration for a half-maximal effect (EC50) in series [1] was 0.276 µM (active); in series [2], > 30 µM (not active).

As for `O=C(NCc1ccncc1)c1ccc(Cl)c(S(=O)(=O)N2CCOCC2)c1`, in series [3], the EC50 is > 195 µM (not active).

One may read the EC50 as the concentration needed to bring the measured effect to its halfway point. As usually defined, the AC50 is the midpoint of the concentration-response curve, whichever way the signal moves.
